Assay results as given in patent US20250270180A1, “MEK INHIBITORS AND THERAPEUTIC USES THEREOF” (Immuneering Corporation, priority 2020, published 2025).
Where two headings read alike, the source gives them in different places.

Columns and labels:
Colon-26 KRAS-G12D tumor = assay: Colon-26 model (KRAS G12D CRC): efficacy & safety; assay type: in vivo; conditions: Colon-26 KRAS-G12D in Balb/c
Method: Female athymic BALB/c nude or BALB/c mice (Beijing Vital River Laboratory Animal Technology Co., Ltd.), approximately 8-10 weeks old were used in these studies. Animals were maintained in individually vented cages on a 12-h light-dark cycle. Food and water were available ad libitum. The Colon-26 tumor cells were maintained in vitro with RPMI1640 medium supplemented with 10% fetal bovine serum at 37° C. in an atmosphere of 5% CO2 in air. The cells in exponential growth phase were harvested and quantitated by cell counter before tumor inoculation. Each mouse was inoculated subcutaneously in the right flank region with Colon-26 tumor cells (5×10^5) in 0.1 mL of PBS. Randomization was started when the mean tumor size reached approximately 125 mm3. A total of 84 tumor-bearing mice were enrolled in the study and allocated into 7 treatment groups (12 mice per group). Also 12 non-tumor-bearing mice were assigned as un-treated group.
Animals were treated with either vehicle (10% DMSO/90% [20% SBE-β-CD in saline], pH 5) or vehicle containing compounds at the indicated doses by gavage (p.o.) twice daily for approximately 28-42 days (BID x 28-42 p.o.), or to ethical endpoints (BWL>20%; Median Tumor Volume (MTV)>2000 mm3; Individual TV>3000 mm3; clinical signs of unwell). Clinical signs of unwell was characterized, but not limited to the following. Severe dehydration, hypothermia, abnormal/labored respiration, lethargy, obvious pain, diarrhea, skin lesions, neurological symptoms, impaired mobility (not able to eat or drink) due to significant ascites and enlarged abdomen, astasia, continuous prone or lateral position, signs of muscular atrophy, paralytic gait, clonic convulsions, tonic convulsions, persistent bleeding from body orifice. Dosing as well as tumor and body weight measurements were conducted in a Laminar Flow Cabinet.
Animals were checked daily for morbidity and mortality. During routine monitoring, the animals were checked for any effects of tumor growth and treatments on behavior such as mobility, food and water consumption, body weight gain/loss (body weights were measured twice per week after randomization), eye/hair matting and any other abnormalities. Mortality and observed clinical signs were recorded for individual animals in detail.
Tumor volumes were measured twice per week after randomization in two dimensions using a caliper, and the volume was expressed in mm3 using the formula: V=(L×W×W)/2, where V is tumor volume, L is tumor length (the longest tumor dimension) and W is tumor width (the longest tumor dimension perpendicular to L). Results were presented as the median tumor volume, expressed in mm3+/−interquartile range, of each group. Tumor Growth Inhibition; TGI %=[1−(Ti/(Ci)]×100; where Ti as the median tumor volume of the treatment group on the measurement day, Ci as the median tumor volume of control group at the measurement day.

CYP450 2B6 = biological target: T1, CYP450 2B6 (Homo sapiens, UniProt P20813); assay: CYP450 panel, 2B6; conditions: 10 μM; substrate bupropion
T1 sequence (P20813 1-491): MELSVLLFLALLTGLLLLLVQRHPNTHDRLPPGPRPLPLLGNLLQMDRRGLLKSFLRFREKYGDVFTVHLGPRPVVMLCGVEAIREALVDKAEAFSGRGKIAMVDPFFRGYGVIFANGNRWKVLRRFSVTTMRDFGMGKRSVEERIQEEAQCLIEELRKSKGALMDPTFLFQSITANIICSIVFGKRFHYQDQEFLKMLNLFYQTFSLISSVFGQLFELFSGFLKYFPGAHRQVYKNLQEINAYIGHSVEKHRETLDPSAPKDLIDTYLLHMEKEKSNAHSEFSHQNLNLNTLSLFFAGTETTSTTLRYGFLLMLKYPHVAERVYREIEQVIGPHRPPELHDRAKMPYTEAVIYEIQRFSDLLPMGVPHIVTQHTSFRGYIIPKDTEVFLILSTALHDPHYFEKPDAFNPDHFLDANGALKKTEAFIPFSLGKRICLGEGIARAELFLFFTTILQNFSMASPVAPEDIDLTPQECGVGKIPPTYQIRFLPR

CYP450 2C8 = biological target: T2, CYP450 2C8 (Homo sapiens, UniProt P10632); assay: CYP450 panel, 2C8; conditions: 10 μM; substrate amodiaquine
T2 sequence (P10632 1-490): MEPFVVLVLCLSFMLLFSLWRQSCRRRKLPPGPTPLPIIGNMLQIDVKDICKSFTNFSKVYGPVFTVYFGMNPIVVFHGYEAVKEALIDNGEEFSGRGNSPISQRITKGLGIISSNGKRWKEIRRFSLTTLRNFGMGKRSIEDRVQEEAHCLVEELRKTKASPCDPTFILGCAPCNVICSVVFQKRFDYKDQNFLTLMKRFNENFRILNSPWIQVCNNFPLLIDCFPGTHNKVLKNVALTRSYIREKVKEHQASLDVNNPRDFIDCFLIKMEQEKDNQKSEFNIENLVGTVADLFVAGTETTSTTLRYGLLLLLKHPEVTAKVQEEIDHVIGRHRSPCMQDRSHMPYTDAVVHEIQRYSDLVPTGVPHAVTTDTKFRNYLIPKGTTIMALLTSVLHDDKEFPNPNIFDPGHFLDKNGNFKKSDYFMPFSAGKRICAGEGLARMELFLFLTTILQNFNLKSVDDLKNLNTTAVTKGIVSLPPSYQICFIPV

CYP450 2C9 = CYP450 2C9 (Homo sapiens, UniProt P11712); assay: CYP450 panel, 2C9; conditions: 10 μM; substrate Diclofenac
[1] = Pharmacokinetics, single dose, 2-hour tissue levels in Colon26 tumor bearing mice; assay type: in vivo; conditions: female, athymic BALB/c nude or BALB/c, mouse, po, single dose 100 mg/kg p.o., 2-hour post dose
Method: Female mice (either athymic BALC/c nude, or BALB/c mice) were inoculated with a single subcutaneous injection of 0.2 ml of mouse Colon-26 cell suspension (1×10^5 cells per animal) in the inguinal region. Colon26 (C26) tumor bearing mice received a single dose (3 mice/treatment) of vehicle (10% DMSO/90% [20% SBE-β-CD in saline], pH 5) containing compounds at 100 mg/kg by gavage (p.o.) and 2-hour post dose humanely euthanized.
Blood was obtained through cardiac puncture into K+EDTA tubes, mixed by inversion and centrifuged to obtain the plasma. Tissues were excised, cleaned of surrounding tissues. All samples immediately snap frozen in liquid N2 prior to LC-MS/MS analysis (using Waters HSS T3 2.1×50 mm (1.8 um) LC column, and an API-6500 Electrospray MS unit).

Sequence of CYP450 2C9 (P11712 whole entry): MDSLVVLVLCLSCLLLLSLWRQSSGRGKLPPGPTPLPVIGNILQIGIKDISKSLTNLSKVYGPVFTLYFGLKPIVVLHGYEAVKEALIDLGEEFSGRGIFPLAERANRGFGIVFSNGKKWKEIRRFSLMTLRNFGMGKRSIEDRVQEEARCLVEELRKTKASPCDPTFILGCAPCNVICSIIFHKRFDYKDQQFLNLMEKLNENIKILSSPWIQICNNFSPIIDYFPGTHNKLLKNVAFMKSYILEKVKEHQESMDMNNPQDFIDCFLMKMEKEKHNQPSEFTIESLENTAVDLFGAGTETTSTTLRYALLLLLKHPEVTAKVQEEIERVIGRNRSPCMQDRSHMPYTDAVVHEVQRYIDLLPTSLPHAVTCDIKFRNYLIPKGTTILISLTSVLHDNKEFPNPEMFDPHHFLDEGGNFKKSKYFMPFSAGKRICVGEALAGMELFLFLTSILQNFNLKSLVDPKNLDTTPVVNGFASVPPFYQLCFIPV

SMILES	BWL (Day 14) (Colon-26 KRAS-G12D tumor; 50 mg/kg BID po)	BWL (Day 17) (Colon-26 KRAS-G12D tumor; 50 mg/kg BID po)	TGI (Day 10) (Colon-26 KRAS-G12D tumor; 50 mg/kg BID po)	2B6* (CYP450 2B6)	2C8* (CYP450 2C8)	2C9* (CYP450 2C9)	BWL (Day 14) (Colon-26 KRAS-G12D tumor; 150 mg/kg BID po)	BWL (Day 17) (Colon-26 KRAS-G12D tumor; 150 mg/kg BID po)	TGI (Day 10) (Colon-26 KRAS-G12D tumor; 150 mg/kg BID po)	concentration at 2 h ([1]; liver, read-out: Liver)	concentration at 2 h ([1]; muscle, read-out: Muscle)	concentration at 2 h ([1]; plasma, read-out: Plasma)	concentration at 2 h ([1]; tumor, read-out: Tumor)
Cn1cnc2c(F)c(Nc3ccc(Br)cc3Cl)c(C(=O)NOCCO)cc21 [Reference 1, Selumetinib, reference compound]	0%	−2%	60.0%	30.2	18.9	14.1							
CNS(=O)(=O)Nc1cccc(Cc2c(CN(C)C)c3ccc(OC(=O)N(C)C)cc3oc2=O)c1F [Compound 9]				14.8	4.0	6.8	0%	0%	93.9%	1260 ng/g	363 ng/g	407 ng/mL	1350 ng/g
CNS(=O)(=O)Nc1nccc(Cc2c(C)c3ccc(Oc4ncccn4)cc3oc2=O)c1F [Reference 2, reference compound]			61.6%							1990 ng/g	550 ng/g	5670 ng/mL	819 ng/g
